Test results: patent US20250268824A1, “METHODS FOR MAKING REDUCED PARTICLE SIZE COMPOUNDS” (TaP Pharmaceuticals AG, priority 2024, published 2025)

Assay: Miscibility of unprocessed prednisolone acetate with water
Type: physicochemical
Conditions: floats on the surface of water
Description: (§1) API Particle size reduction. The API, prednisolone acetate, of the present invention is destined for inclusion in ophthalmic formulation and characterized by a target PSD of: D10≤0.15 μM, D50≤0.75 μM, D90≤2.5 μM. […] Addition of surfactant (e.g. polysorbate) to aqueous solution was required to form slurries of prednisolone acetate suitable for use as vehicles in particle size reduction experiments that employed bead milling and high-pressure homogenization.
as §1, with “and in some embodiments” for “and”, “D10≤1.0” for “D10≤0.15”, “D50≤2.2” for “D50≤0.75”, “D90≤4.5” for “D90≤2.5”, “that” for “that employed bead milling and”

miscibility with water: immiscible with water
SMILES: CC(=O)OCC(=O)[C@@]1(O)CC[C@H]2[C@@H]3CCC4=CC(=O)C=C[C@]4(C)[C@H]3[C@@H](O)C[C@@]21C [prednisolone acetate]
